Data set [1] can be described thus: Kinetic turbidimetric aqueous solubility. The class given is physicochemical. Particulars: aqueous buffer, kinetic from dmso stock; PBS buffer, final DMSO 2%, absorbance 620 nm; read-out: Kinetic Turbidimetric Aqueous Solubility at room temperature for 5 min. The method, then:
Kinetic Turbidimetric Aqueous Solubility at room temperature for 5 min. […] Data was analyzed by fitting a four parameter sigmoidal function to the measured and normalized absorbances and AUC calculation providing access to Log S (decadic logarithm of the solubility).

The subject of data set [2] is P. aeruginosa pyocyanin production. Nature of the data set: Pyocyanin assay. The format is cell-based, P. aeruginosa strain PA14. The settings on record: Pseudomonas aeruginosa, PA14, 16 h, read-out: IC50-value towards pyocyanin production. The method, then: Inhibition of P. aeruginosa pyocyanin production by compounds was determined photometrically as described before. In short, an overnight culture of PA14 in PPGAS medium was washed, diluted in medium to a start OD600 of 0.02, and incubated for 16 h (37° C., 200 rpm, relative humidity 75%) in the presence of test compounds. Then, cultures were extracted with chloroform and re-extracted with 0.2 M HCl. Protonated red colored pyocyanin was determined by measuring OD520 and normalizing to OD600.

Data set [3] can be described thus: Metabolic stability in mouse liver microsomes (MLM). The class given is in vitro ADME. Particulars: 1 μM compound, 0.5 mg/mL MLM, 1 mM NADPH, 37° C., read-out: half-life (t1/2) towards MLM. The procedure:
For the evaluation of phase I metabolic stability, the compound (1 μM) was incubated with 0.5 mg/mL MLM (Corning) and 1 mM NADPH at 37° C. for 0, 5, 10, 15 and 30 min. The metabolic stability of Verapamil, Diphenhydramine and Benzydamine (1 μM each) were determined in parallel to confirm the enzymatic activity of the MLM. The incubation was stopped by addition of 2 volumes of acetonitrile containing internal standard (1 μM Leucine Enkephaline). Samples were centrifuged (15 min, 3,500 rpm). Concentration of the remaining test compound at the different time points was analyzed by HPLC-MS/MS and used to determine half-life (t1/2).

For 23 compounds, solubility, IC50 and half-life results are on record in patent publication US20230106506A1, “NOVEL PqsR INVERSE AGONISTS” (Helmholtz-Zentrum Fur Infektionsforschung GmbH, priority 2020, published 2023).

Some results are limits rather than exact numbers.

Usually solubility stands for the concentration that dissolves in the medium under given conditions. One may read the IC50 as the concentration needed to halve the response being measured. Turning to `CC(C)Oc1ccc(-c2ccc(CNc3cc(-c4cn[nH]c4)nc(C(F)(F)F)c3)cn2)cc1` [Compound 21, N-((6-(4-Isopropoxyphenyl)pyridin-3-yl)methyl)-2-(1H-pyrazol-4-yl)-6-(trifluoromethyl)pyridin-4-amine], in data set [1], the solubility at 5 min is > 25 µM. Also, the IC50 in data set [2] lay in the range of 101 to 200 nM. Also, the half-life at 1 µM in data set [3] is > 1.67 h.
On the same counts, the results for `CC(C)Oc1ccc(-c2ccc(CNc3cc(-c4cn[nH]c4)nc(C(F)(F)F)c3)nc2)cc1` [Compound 20, N-((5-(4-Isopropoxyphenyl)pyridin-2-yl)methyl)-2-(1H-pyrazol-4-yl)-6-(trifluoromethyl)pyridin-4-amine] are > 10 µM, 101 to 200 nM and > 1.67 h.
Take `Fc1ccccc1Oc1ccc(-c2ncc(CNc3cc(-c4cn[nH]c4)nc(C(F)(F)F)c3)cn2)cc1` [Compound 51, N-((2-(4-(2-Fluorophenoxy)phenyl)pyrimidin-5-yl)methyl)-2-(1H-pyrazol-4-yl)-6-(trifluoromethyl)pyridin-4-amine]: the solubility at 5 min in data set [1] is > 50 µM. Further, in data set [2], the IC50 fell in the range of 101 to 200 nM. Moreover, the half-life at 1 µM in data set [3] was > 1.67 h.
For `CC(C)Oc1ccc(-c2ncc(CNc3cc(-n4ccnc4)nc(C(F)(F)F)c3)cn2)cc1Cl` [Compound 30, N-((2-(3-Chloro-4-Isopropoxyphenyl)pyrimidin-5-yl)methyl)-2-(1H-imidazol-1-yl)-6-(trifluoromethyl)pyridin-4-amine] the same measures were > 10 µM, 101 to 200 nM and > 1.67 h.
For the compound `FC(F)(F)c1cc(NCc2cnc(-c3ccc(Cl)c(Cl)c3)nc2)cc(-c2cn[nH]c2)n1` [Compound 35, N-((2-(3,4-Dichlorophenyl)pyrimidin-5-yl)methyl)-2-(1H-pyrazol-4-yl)-6-(trifluoromethyl)pyridin-4-amine], the solubility at 5 min in data set [1] was > 10 µM. Moreover, the IC50 in data set [2] was in the range of 101 to 200 nM. The half-life at 1 µM in data set [3] was > 1.67 h.
On the same counts, the results for `N#Cc1cc(-c2ncc(CNc3cc(-n4cncn4)nc(C(F)(F)F)c3)cn2)ccc1Cl` [Compound 39, 5-(5-(((2-(1H-1,2,4-Triazol-1-yl)-6-(trifluoromethyl)pyridin-4-yl)amino)methyl)pyrimidin-2-yl)-2-chlorobenzonitrile] are > 10 µM, 101 to 200 nM and > 1.67 h.
For the compound `FC(F)(F)Oc1ccc(-c2ncc(CNc3cc(-c4cn[nH]c4)nc(C(F)(F)F)c3)cn2)cc1` [Compound 55, 2-(1H-Pyrazol-4-yl)-N-((2-(4-(trifluoromethoxy)phenyl)pyrimidin-5-yl)methyl)-6-(trifluoromethyl)pyridin-4-amine], the solubility at 5 min in data set [1] is > 10 µM. For the same compound, the IC50 in data set [2] lay within 201 to 500 nM. Besides, the half-life at 1 µM in data set [3] is > 1.67 h.
As for `Nc1ccc(Oc2ccc(-c3ncc(CNc4cc(-c5cn[nH]c5)nc(C(F)(F)F)c4)cn3)cc2)cc1` [Compound 56, N-((2-(4-(4-Aminophenoxy)phenyl)pyrimidin-5-yl)methyl)-2-(1H-pyrazol-4-yl)-6-(trifluoromethyl)pyridin-4-amine], the solubility at 5 min in data set [1] was > 10 µM. The IC50 in data set [2] is 101 to 200 nM. The half-life at 1 µM in data set [3] fell in the range of 1.02 to 1.67 h.
Consider `FC(F)(F)c1cc(NCc2cnc(-c3ccc(Cl)cc3)nc2)cc(-c2cn[nH]c2)n1` [Compound 33, N-((2-(4-Chlorophenyl)pyrimidin-5-yl)methyl)-2-(1H-pyrazol-4-yl)-6-(trifluoromethyl)pyridin-4-amine], for which the solubility at 5 min in data set [1] was > 10 µM. The IC50 in data set [2] is 201 to 500 nM. In data set [3], the half-life at 1 µM fell in the range of 1.02 to 1.67 h.
On to `CC(C)Oc1ccc(-c2ncc(CNc3cc(-c4cn[nH]c4)nc(C(F)(F)F)c3)cn2)cc1` [Compound 28, N-((2-(4-Isopropoxyphenyl)pyrimidin-5-yl)methyl)-2-(1H-pyrazol-4-yl)-6-(trifluoromethyl)pyridin-4-amine], for which the solubility at 5 min in data set [1] is > 25 µM. Besides, in data set [2], the IC50 is ≤ 100 nM. In addition, the half-life at 1 µM in data set [3] is 1.02 to 1.67 h.
Consider `CC(C)Oc1ccc(-c2cnc(CNc3cc(-c4cn[nH]c4)nc(C(F)(F)F)c3)cn2)cc1` [Compound 27, N-((5-(4-Isopropoxyphenyl)pyrazin-2-yl)methyl)-2-(1H-pyrazol-4-yl)-6-(trifluoromethyl)pyridin-4-amine], for which the solubility at 5 min in data set [1] is > 25 µM. Moreover, the IC50 in data set [2] is 101 to 200 nM. In data set [3], the half-life at 1 µM is > 1.67 h.
Regarding `CC(C)Oc1ccc(-c2cnc(CNc3cc(-c4cn[nH]c4)nc(C(F)(F)F)c3)nc2)cc1Cl` [Compound 47, N-((5-(3-Chloro-4-isopropoxyphenyl)pyrimidin-2-yl)methyl)-2-(1H-pyrazol-4-yl)-6-(trifluoromethyl)pyridin-4-amine], the solubility at 5 min in data set [1] is > 10 µM. Further, the IC50 in data set [2] is 201 to 500 nM. In addition, in data set [3], the half-life at 1 µM was 0.5 to 1 h.
On the same counts, the results for `CC(C)Oc1ccc(-c2ccc(CNc3cc(-c4cn[nH]c4)nc(C(F)(F)F)c3)nc2)cc1Cl` [Compound 24, N-((5-(3-Chloro-4-isopropoxyphenyl)pyridin-2-yl)methyl)-2-(1H-pyrazol-4-yl)-6-(trifluoromethyl)pyridin-4-amine] are > 10 µM, 201 to 500 nM and > 1.67 h.
Take `CC(C)Oc1ccc(-c2cnc(CNc3cc(-n4cncn4)nc(C(F)(F)F)c3)nc2)cc1Cl` [Compound 43, N-((5-(3-Chloro-4-isopropoxyphenyl)pyrimidin-2-yl)methyl)-2-(1H-1,2,4-triazol-1-yl)-6-(trifluoromethyl)pyridin-4-amine]: the solubility at 5 min in data set [1] is > 10 µM. In addition, the half-life at 1 µM in data set [3] is > 1.67 h.
Regarding `CC(C)Oc1ccc(-c2ncc(CNc3cc(-c4nn[nH]n4)nc(C(F)(F)F)c3)s2)cc1` [Compound 19], the solubility at 5 min in data set [1] was ≥ 100 µM. The half-life at 1 µM in data set [3] is > 1.67 h.
`CC(C)Oc1ccc(-c2cnc(CNc3cc(-c4cn[nH]c4)nc(C(F)(F)F)c3)cn2)cc1Cl` [Compound 57, N-((5-(3-Chloro-4-isopropoxyphenyl)pyrazin-2-yl)methyl)-2-(1H-pyrazol-4-yl)-6-(trifluoromethyl)pyridin-4-amine]: in data set [1], the solubility at 5 min was > 25 µM. For the same compound, the IC50 in data set [2] lay in the range of 101 to 200 nM. Besides, in data set [3], the half-life at 1 µM was > 1.67 h.
On to `CC(C)Oc1ccc(-c2ncc(CNc3cc(-n4cncn4)nc(C(F)(F)F)c3)cn2)cc1Cl` [Compound 60, N-((2-(3-Chloro-4-isopropoxyphenyl)pyrimidin-5-yl)methyl)-2-(1H-1,2,4-triazol-1-yl)-6-(trifluoromethyl)pyridin-4-amine], for which the solubility at 5 min in data set [1] is > 10 µM. Moreover, in data set [2], the IC50 fell in the range of 101 to 200 nM. Besides, in data set [3], the half-life at 1 µM is 1.02 to 1.67 h.
For `CC(C)Oc1ccc(-c2ccc(CNc3cc(-c4cn[nH]c4)nc(C(F)(F)F)c3)cn2)cc1Cl` [Compound 23, N-((6-(3-Chloro-4-isopropoxyphenyl)pyridin-3-yl)methyl)-2-(1H-pyrazol-4-yl)-6-(trifluoromethyl)pyridin-4-amine] the same measures were > 25 µM, 201 to 500 nM and > 1.67 h.
For `FC(F)(F)c1cc(NCc2nc3cc(Oc4ccccc4)ccc3[nH]2)cc(-n2ccnc2)n1` [Compound 61, 2-(1H-imidazol-1-yl)-N-((5-phenoxy-1H-benzo[d]imidazol-2-yl)methyl)-6-(trifluoromethyl)pyridin-4-amine] the same measures were > 10 µM, 101 to 200 nM and 0.5 to 1 h.
On the same counts, the results for `CC(C)Oc1ccc(-c2ncc(CNc3cc(-c4cc[nH]n4)nc(C(F)(F)F)c3)cn2)cc1` [Compound 31, N-((2-(4-Isopropoxyphenyl)pyrimidin-5-yl)methyl)-2-(1H-pyrazol-3-yl)-6-(trifluoromethyl)pyridin-4-amine] are > 10 µM, 201 to 500 nM and > 1.67 h.
Regarding `Fc1cc(-c2ncc(CNc3cc(-c4cn[nH]c4)nc(C(F)(F)F)c3)cn2)ccc1Cl` [Compound 34, N-((2-(4-Chloro-3-fluorophenyl)pyrimidin-5-yl)methyl)-2-(1H-pyrazol-4-yl)-6-(trifluoromethyl)pyridin-4-amine], in data set [1], the solubility at 5 min is > 10 µM. In data set [2], the IC50 was in the range of 201 to 500 nM. Moreover, the half-life at 1 µM in data set [3] was > 1.67 h.
On the same counts, the results for `CC(C)Oc1ccc(-c2ccc(CNc3cc(-c4cn[nH]c4)nc(C(F)(F)F)c3)nn2)cc1Cl` [Compound 58, N-((6-(3-Chloro-4-isopropoxyphenyl)pyridazin-3-yl)methyl)-2-(1H-pyrazol-4-yl)-6-(trifluoromethyl)pyridin-4-amine] are > 25 µM, 101 to 200 nM and > 1.67 h.
On the same counts, the results for `CC(C)Oc1ccc(-c2ncc(CNc3cc(-c4ccc(C#N)nc4)nc(C(F)(F)F)c3)s2)cc1` [Compound 68, 4-(((2-(4-Isopropoxyphenyl)thiazol-5-yl)methyl)amino)-6-(trifluoromethyl)-[2,3′-bipyridine]-6′-carbonitrile] are > 25 µM, 201 to 500 nM and > 1.67 h.
